Reference: US10434191B2, “Optical imaging probes” (THE UNIVERSITY COURT OF THE UNIVERSITY OF EDINBURGH, priority 2011, dated 2019)
“Also recorded” adds a separate entry of the source.

Key:
[1] = test system: freshly isolated human neutrophils (PMNs); assay: Live time-lapse confocal imaging of probe uptake in activated human neutrophils; format: cell-based
Protocol: (§1) Human peripheral blood leukocytes from healthy volunteers were prepared as previously described^25. Briefly, citrated blood was centrifuged at room temperature for 20 min at 350 g, and platelet-rich plasma was removed. Autologous serum was prepared by recalcification of platelet-rich plasma by addition of CaCl2 to a final concentration of 2 mM. Leukocytes were separated from erythrocytes by dextran sedimentation using 0.6% dextran T500 (Pharmacia, Milton Keynes, UK), and the leukocyte-rich upper layer was then fractionated using isotonic Percoll (Pharmacia). Neutrophils and mononuclear leukocytes (PBMC) were harvested from the 68%181% and 55/68% interfaces, respectively. In some experiments, neutrophils were labelled with DiD (Invitrogen, molecular probes) (2.5 μM) in D-PBS (w/o Ca/Mg) for 20 min at room temperature.
A laser-scanning confocal imaging system (LSM510; Carl Zeiss, Jena, Germany), incorporating an upright Axioskop FS2 microscope (63× objective) was used for image acquisition and processing. Exposure to 488 nm light was limited to 1-6% of the maximum laser power in order to minimize photobleaching and toxicity. In all cases, images were obtained without Kalman averaging and typically with a pixel dwell time of 3.2 μs with a pinhole diameter corresponding to 1 Airy unit. In multiple-labelling experiments pinhole diameters were adjusted to give optical Z-sections of equivalent depths, corresponding to 1 Airy unit for the longest excitation wavelength. All live time-lapse imaging of was performed in IMDM. Coverslips were transferred to a thermostatted environmental stage (POC Mini) maintained at 30° C.^26. Drugs were added by bath addition. In experiments where fluorescein was examined alone, the fluorophore was excited with a dedicated 488 nm line, and emitted light reflected from a NFT545 filter and passed through an LP505 filter.
In multiple labelling experiments involving membrane (DiD, Invitrogen), or dextran-647, and IQR probes, images were obtained simultaneously. DiD or dextran-647 was excited with a dedicated 633 nm line, and emitted light detected with meta detector (650-705 nm), whereas Fluorescein was excited with a dedicated 488 nm line, and emitted light reflected from a NFT545 filter and passed through an LP505 filter.
Neutrophils and mononuclear cells (6×10^5 cells total), or PBMC-derived macrophages, were seeded onto glass coverslips pre-coated with 10 μg/ml fibronectin (Sigma). Cells were allowed to adhere and 10 μM (final concentration) IQR1.2 added to wells prior to transfer to POC mini and placement in environmental chamber. Live imaging commenced at 30 s intervals. Baseline images were acquired for 10-15 min prior to addition of A21387 (10 μM, Sigma) and live time-lapse confocal images acquired for further 20 min. Where sivelestat or dynasore was included, cells were pretreated for 10 minutes prior to imaging.

[2] = test system: PMNs, monocytes and lymphocytes; assay: Human cell specificity by live confocal imaging; format: cell-based; settings: PMNs vs monocytes vs lymphocytes
Protocol: as §1, with “temperature. […]” for “temperature.”
In multiple labelling experiments using IQR probes in combination with syto-85 (Invitrogen, 2.5 μM, 30 minutes, 37° C.), images were acquired sequentially. Fluorescein was excited with a dedicated 488 nm line and emitted light reflected from a NFT545 filter and passed through an LP505 filter whereas syto-85 were excited with a dedicated 543 nm line, and emitted light detected with meta detector ([…]). […]

[3] = test system: freshly isolated human neutrophils; assay: In vitro Cellvizio 488 nm fibreoptic confocal imaging; format: cell-based
Protocol: Human neutrophils were isolated as described above and suspended in PBS with or without activating agents. A fibreoptic confocal system (488 Cellvizio) was used to acquire images in eppendorfs of cells both in the presence of free FAM and IQRs and after washing cells of free FAM and IQR in media. Imaging was performed for 60 s and representative still frames converted to bmp format.

[4] = biological target: T1, recombinant human neutrophil elastase (HNE) (Homo sapiens, UniProt P08246); assay: Fluorescent microplate reader dequenching with HNE; format: biochemical; settings: 50 uM
T1 sequence (P08246 30-267): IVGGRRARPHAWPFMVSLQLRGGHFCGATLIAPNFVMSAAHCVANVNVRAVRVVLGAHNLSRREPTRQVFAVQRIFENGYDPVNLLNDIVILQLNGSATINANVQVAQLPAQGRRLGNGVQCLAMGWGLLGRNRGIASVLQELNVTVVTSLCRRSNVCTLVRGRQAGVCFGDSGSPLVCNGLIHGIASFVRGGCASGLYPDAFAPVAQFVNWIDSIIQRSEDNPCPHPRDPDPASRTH
Protocol: IQR4 (0.5 uM) was incubated with of human neutrophil elastase (HNE; 11.3 ug/ml) in reaction buffer (50 mm Hepes buffer, pH 7.4, 0.75 m NaCl, 0.05% Igepal CA-630 (v/v)) with or without of sivelestat (50 uM). The timecourse of fluorescence dequenching was followed for 30 min with a fluorescence microplate reader (excitation 480/20, emission 528/25).

[5] = test system: human neutrophil lysate; assay: Fluorescent microplate reader dequenching with neutrophil lysate; format: biochemical; settings: 50 uM
Protocol: For experiments using neutrophil lysate, IQR4 (0.5 uM) is incubated with freeze-thawed neutrophil lysate (10×10^8 cells/ml) in IMDM with or without sivelestat (50 uM). The timecourse of fluorescence dequenching was followed for 30 min with a fluorescence microplate reader (excitation 480/20, emission 528/25).

Q: Which results are given for 5(6)-carboxyfluorescein [FAM]?
A: probe uptake after pretreatment with dynamin inhibitor Dynasore ([1]; activated neutrophils, Dynasore pretreatment): prevented; appearance of punctate cell-associated fluorescence ([1]; activation with 10 μM A23187 (calcium ionophore), confocal imaging): rapid appearance of punctate cell-associated fluorescence; cell specificity of probe uptake/activation [2]: Only activated PMN's internalise FAM; resolution of activated cells before wash ([3]; 15 min exposure, probe in medium): not possible to resolve activated cells; visibility of activated cells after washing ([3]; cells spun down, probe removed): activated cells are visible

Q: `O=C(N/N=C/c1ccc(O)c(O)c1)c1cc2ccccc2cc1O` [Dynasore] was tested. Which “effect on uptake of IQR1.2 by activated neutrophils” value ([1]; pre-treatment, probe IQR1.2) did it give?
A: The value was “prevented”.

Q: What about the “effect on uptake of FAM by activated neutrophils” value ([1]; pretreatment, probe FAM) of the same molecule?
A: The value was “prevented”.

Q: And the “effect on cell-associated fluorescence of IQR1 in activated neutrophils” value ([1]; probe IQR1)?
A: Its value is “inhibited”.

Q: `CC(C)(C)C(=O)Oc1ccc(S(=O)(=O)Nc2ccccc2C(=O)NCC(=O)O)cc1` [sivelestat] was tested. Which “effect on punctate cell-associated fluorescence from probe IQR4 in activated neutrophils” value ([1]; 50 μM, pre-treatment 10 mins, A23187) did it give?
A: The value was “blocked; also recorded: inhibits the appearance of this punctate cell-associated fluorescence”.

Q: What about the “effect on HNE-induced dequenching of IQR4” value [4] of the same molecule?
A: The value was “inhibited; also recorded: blocked”.

Q: And the “effect on neutrophil lysate-induced dequenching of IQR4” value [5]?
A: Its value is “blocked; also recorded: inhibited”.
